Data: the NIST ThermoML archive (doi:10.1021/acs.jced.7b00466)
“And” between values parts separate entries of the source, which are not always exact repeats. Identical values can stand only once.

Experiment: an = ratio of the nth substance listed
Settings: for viscosity / speed of sound / mass density: 102 kPa, Liquid; for viscosity: Concentric cylinders viscometry; for speed of sound: Frequency=3 MHz, Sing-around technique in a fixed-path interferometer; for mass density: Vibrating tube method; for surface tension liquid-gas: 294.5 K, Pendant drop shape

CCCCC1CCCCC1 [butylcyclohexane] + CCCCCCCCCCCC
Settings | mass density | speed of sound | viscosity
293.15 K, a2 = 0.3332 | 783.9 kg/m3 | 1317.5 m/s and 1317.3 m/s | 1.34 mPa·s
293.15 K, a2 = 1 | 770.6 kg/m3 | 1309 m/s and 1308.8 m/s | 1.38 mPa·s
293.15 K, a2 = 2.995 | 759 kg/m3 | 1302.4 m/s | 1.44 mPa·s
293.15 K, a2 = 3.001 | 759 kg/m3 | 1302.6 m/s | 1.42 mPa·s
303.15 K, a2 = 0.3332 | 776.5 kg/m3 | 1278.1 m/s and 1278.4 m/s | 1.13 mPa·s
303.15 K, a2 = 1 | 763.3 kg/m3 | 1270.4 m/s and 1270.1 m/s | 1.17 mPa·s
303.15 K, a2 = 2.995 | 751.7 kg/m3 | 1264 m/s | 1.22 mPa·s
303.15 K, a2 = 3.001 | 751.7 kg/m3 | 1264.3 m/s | 1.2 mPa·s
313.15 K, a2 = 0.3332 | 769.1 kg/m3 | 1239.7 m/s and 1239.9 m/s | 0.972 mPa·s and 0.974 mPa·s
313.15 K, a2 = 1 | 755.9 kg/m3 | 1232.3 m/s and 1232 m/s | 1.01 mPa·s and 1 mPa·s
313.15 K, a2 = 2.995 | 744.4 kg/m3 | 1226.2 m/s | 1.04 mPa·s
313.15 K, a2 = 3.001 | 744.4 kg/m3 | 1226.5 m/s | 1.02 mPa·s
323.15 K, a2 = 0.3332 | 761.6 kg/m3 | 1201.8 m/s and 1202 m/s | 0.845 mPa·s and 0.846 mPa·s
323.15 K, a2 = 1 | 748.5 kg/m3 | 1194.8 m/s and 1194.6 m/s | 0.88 mPa·s and 0.865 mPa·s
323.15 K, a2 = 2.995 | 737.1 kg/m3 | 1189 m/s | 0.896 mPa·s
323.15 K, a2 = 3.001 | 737.1 kg/m3 | 1189.3 m/s | 0.883 mPa·s
333.15 K, a2 = 0.3332 | 754.1 kg/m3 | 1164.8 m/s and 1164.7 m/s | 0.743 mPa·s and 0.741 mPa·s
333.15 K, a2 = 1 | 741.1 kg/m3 | 1158.1 m/s and 1157.9 m/s | 0.774 mPa·s and 0.757 mPa·s
333.15 K, a2 = 2.995 | 729.7 kg/m3 | 1152.5 m/s | 0.788 mPa·s
333.15 K, a2 = 3.001 | 729.7 kg/m3 | 1152.9 m/s | 0.77 mPa·s
343.15 K, a2 = 0.3332 | 746.5 kg/m3 | – | 0.656 mPa·s
343.15 K, a2 = 1 | 733.6 kg/m3 and 733.7 kg/m3 | – | 0.686 mPa·s and 0.668 mPa·s
343.15 K, a2 = 2.995 | 722.5 kg/m3 | – | 0.699 mPa·s
343.15 K, a2 = 3.001 | 722.2 kg/m3 | – | 0.678 mPa·s

Settings | surface tension liquid-gas [mN/m]
a2 = 0.3332 | 26.1
a2 = 0.3335 | 26.1
a2 = 0.9998 | 25.8
a2 = 1 | 25.6
a2 = 2.997 | 25.4
a2 = 3.001 | 25.3

CCCCC1CCCCC1 [butylcyclohexane] + CCCCCCCCCCCCCCCC
Settings | mass density [kg/m3] | speed of sound [m/s] | viscosity [mPa·s]
293.15 K, a2 = 0.25 | 791.29 | 1334.4 | 1.68
293.15 K, a2 = 0.3333 | 789.5 | 1335.5 | 1.78
293.15 K, a2 = 0.3335 | 789.61 | 1335.2 | 1.78
293.15 K, a2 = 0.6666 | 785.19 | – | 2.08
293.15 K, a2 = 0.6667 | – | 1339.5 | –
293.15 K, a2 = 0.9992 | 782.68 | 1342.9 | 2.29
293.15 K, a2 = 0.9997 | 782.68 | 1342.9 | 2.29
293.15 K, a2 = 1.5 | 780.35 | 1345.6 | 2.5
293.15 K, a2 = 2.997 | 777.44 | 1349.7 | 2.84
293.15 K, a2 = 3.001 | 777.44 | 1350 | 2.84
293.15 K, a2 = 3.998 | 776.54 | 1350.8 | 2.96
303.15 K, a2 = 0.25 | 784.02 | 1295.9 | 1.4
303.15 K, a2 = 0.3333 | 782.27 | 1297.1 | 1.5
303.15 K, a2 = 0.3335 | 782.37 | 1296.8 | 1.49
303.15 K, a2 = 0.6666 | 778.07 | – | 1.71
303.15 K, a2 = 0.6667 | – | 1301.7 | –
303.15 K, a2 = 0.9992 | 775.6 | 1305.2 | 1.87
303.15 K, a2 = 0.9997 | 775.6 | 1305.2 | 1.87
303.15 K, a2 = 1.5 | 773.33 | 1308.2 | 2.04
303.15 K, a2 = 2.997 | 770.54 | 1312.4 | 2.29
303.15 K, a2 = 3.001 | 770.45 | 1312.7 | 2.29
303.15 K, a2 = 3.998 | 769.57 | 1313.6 | 2.37
313.15 K, a2 = 0.25 | 776.71 | 1257.8 | 1.19
313.15 K, a2 = 0.3333 | 775.01 | 1259.3 | 1.26
313.15 K, a2 = 0.3335 | 775.12 | 1259.1 | 1.26
313.15 K, a2 = 0.6666 | 770.92 | – | 1.44
313.15 K, a2 = 0.6667 | – | 1264.4 | –
313.15 K, a2 = 0.9992 | 768.51 | 1268.2 | 1.56
313.15 K, a2 = 0.9997 | 768.51 | 1268.2 | 1.56
313.15 K, a2 = 1.5 | 766.29 | 1271.3 | 1.69
313.15 K, a2 = 2.997 | 763.47 | 1275.9 | 1.88
313.15 K, a2 = 3.001 | 763.47 | 1276 | 1.88
313.15 K, a2 = 3.998 | 762.61 | 1277 | 1.95
323.15 K, a2 = 0.25 | 769.38 | 1220.2 | 1.03
323.15 K, a2 = 0.3333 | 767.73 | 1222.1 | 1.08
323.15 K, a2 = 0.3335 | 767.83 | 1222 | 1.08
323.15 K, a2 = 0.6667 | 763.75 | 1227.5 | 1.23
323.15 K, a2 = 0.9992 | 761.41 | 1231.8 | 1.33
323.15 K, a2 = 0.9997 | 761.41 | 1231.8 | 1.33
323.15 K, a2 = 1.5 | 759.24 | 1234.9 | 1.42
323.15 K, a2 = 2.997 | 756.48 | 1239.9 | 1.58
323.15 K, a2 = 3.001 | 756.48 | 1240.1 | 1.58
323.15 K, a2 = 3.998 | 755.63 | 1240.9 | 1.62
333.15 K, a2 = 0.25 | 762.02 | 1183.2 | 0.898
333.15 K, a2 = 0.3333 | 760.42 | 1185.7 | 0.942
333.15 K, a2 = 0.3335 | 760.52 | 1185.6 | 0.942
333.15 K, a2 = 0.6667 | 756.56 | 1191.2 | 1.06
333.15 K, a2 = 0.9992 | 754.28 | 1196.2 | 1.14
333.15 K, a2 = 0.9997 | 754.28 | 1196.2 | 1.14
333.15 K, a2 = 1.5 | 752.17 | 1199.1 | 1.22
333.15 K, a2 = 2.997 | 749.48 | 1204.7 | 1.34
333.15 K, a2 = 3.001 | 749.49 | 1205 | 1.34
333.15 K, a2 = 3.998 | 748.65 | 1205.4 | 1.38
343.15 K, a2 = 0.25 | 754.6 | – | 0.789
343.15 K, a2 = 0.3333 | 753.1 | – | 0.827
343.15 K, a2 = 0.3335 | 753.2 | – | 0.821
343.15 K, a2 = 0.6667 | 749.4 | – | 0.926
343.15 K, a2 = 0.9992 | 747.2 | – | 0.991
343.15 K, a2 = 0.9997 | 747.2 | – | 0.991
343.15 K, a2 = 1.5 | 745.1 | – | 1.06
343.15 K, a2 = 2.997 | 742.5 | – | 1.16
343.15 K, a2 = 3.001 | 742.5 | – | 1.16
343.15 K, a2 = 3.998 | 741.4 | – | 1.19

Settings | surface tension liquid-gas [mN/m]
a2 = 0.25 | 26.6
a2 = 0.3333 | 26.7
a2 = 0.3335 | 26.9
a2 = 0.6667 | 26.9
a2 = 0.9992 | 26.9
a2 = 0.9997 | 26.9
a2 = 1.5 | 26.9
a2 = 2.997 | 27.1
a2 = 3.001 | 27
a2 = 3.998 | 27
